The subject of series [1] is Plasmodium berghei infected mice. The format is in vivo.
The next series concerns GFP strain P. berghei. The series is described as follows: in vivo antimalarial ED50 in mice, single administration SC or PO. The following applies: for ED50: Plasmodium berghei, in Mus musculus; for overt toxicity / behavioral modification in the mice: single dose of 3, 10 or 30 mg/kg SC or PO.
Series [2] concerns malaria-infected mice (GFP strain P. berghei). Description: oral in vivo antimalarial activity in malaria-infected mice, three doses over three days.
Series [3] deals with normal ectocervical cells HCX (primary normal cervical cells). The series is described as follows: XTT cell viability assay, normal cervical cells. The format is cell-based, human. As to the method: Primary human ectocervical keratinocytes were derived from fresh cervical tissue obtained from the Cooperative Human Tissue Network (CHTN) within 24 hours after removal from patients undergoing hysterectomies for benign non-cervical uterine diseases. Standard overnight dispase treatment and subsequent trypsinization procedures were used to isolate ectocervical epithelial cells, which were cultured in serum-free keratinocyte medium (KSFM) supplemented with bovine pituitary extract and epidermal growth factor according to the manufacturer's protocol (Invitrogen, Carlsbad, Calif.). […]
Cell viability was determined using 2.5×10^3 cells were plated in triplicates in 96 well tissue culture microplates in the appropriate culture medium and incubated for 24 hours in a humidified atmosphere at 37° C., 5% CO2. […] Cell viability (absorbance) was measured using an ELISA reader at 450 nm with a reference wavelength at 650 nm. Results were calculated as the percentage of cultures exposed to solvent control only. […]
2.5×10^3 cells were plated in triplicates in 96 well tissue culture microplates in the appropriate culture medium and incubated for 24 hours in a humidified atmosphere at 37° C., 5% CO2. […] Cell viability (absorbance) was measured using an ELISA reader at 450 nm with a reference wavelength at 650 nm. Results were calculated as the percentage of cultures exposed to solvent control only. […]
Background: Formazan colour is commonly taken as a measure of viable cells.

Series [4] has as its system chloroquine-sensitive Plasmodium falciparum (NF 54) parasites. The series is described as follows: in vitro antimalarial potency, standard assay. The format is cell-based. The following applies: for IC50: Plasmodium falciparum, read-out: IC50 (nM), Antimalarial Activities in vitro.
For series [5], the system named is human cervical cancer cell line HeLa. Description: XTT proliferation / cell viability assay, HeLa. The format is cell-based. The following applies: for IC50: Homo sapiens, XTT based assay, read-out: IC50, HeLa cells.
The nature of series [6]: solubility in aqueous pH 7.4 buffer. The following applies: aqueous pH 7.4 buffer solution, pH 7.4, 25° C. The format is physicochemical.
Series [7] deals with panel of 60 human cancer cell lines. The series is described as follows: NCI panel of 60 human cancer cell lines, growth inhibition. The format is cell-based. To be noted: nanomolar to micromolar concentrations. The text has this: Cell growth was inhibited in a dose-dependent manner.
Where [8] appears, read: chloroquine-sensitive P. falciparum NF 54, quadruplicates.

Each structure is given as a SMILES string. In brackets after ≈: the same amount, converted by molar mass. Like-named read-outs stand apart in the source and are kept apart here.

Take `C[C@H]1[C@H](OC(=O)CCC(=O)[O-])O[C@@H]2O[C@@]3(C)CC[C@H]4[C@H](C)CC[C@@H]1[C@@]24OO3.[Na+]` [sodium artesunate]: the “life of the mice prolonged to” value in series [1] (30 mg/kg single dose, no drug 7 days) came to 14 days. Besides, the malaria parasites killed entry in series [1] (single dose 30 mg/kg, subcutaneous) was “similarly efficacious”. Besides, the “PO ED50” value in the series with GFP strain P. berghei (mice, single administration, oral) is 4.0 mg/kg. In addition, the “SC ED50” value with GFP strain P. berghei (mice, single administration, subcutaneous) is 2.2 mg/kg. Moreover, the “Avg Mouse Survival (oral, 3 × 10 mg/kg)” value in series [2] is reported as 6.7.

As a reminder, the IC50 is the concentration needed to halve the response being measured. One may read the ED50 as the dose that gives a 50% effect, or the effect in half of the subjects. As for `C[C@H]1[C@@H](CCc2cc(CO)c(CO)cc2CC[C@H]2O[C@@H]3O[C@@]4(C)CC[C@H]5[C@H](C)CC[C@@H]([C@H]2C)[C@@]35OO4)O[C@@H]2O[C@@]3(C)CC[C@H]4[C@H](C)CC[C@@H]1[C@@]24OO3` [dimer 7], the “toxicity to primary normal cervical cells” value in series [3] is given as “without being toxic”. Also, the IC50 amounted to 0.77 nM in series [4] (setting [8]) and 46.5 nM in series [5]. Besides, the “times more antimalarially active than artemisinin” value in series [4] (in vitro, P. falciparum NF 54) was “approximately 10 times”. Moreover, the “times more potent than trioxane monomer DHA” value in series [5] is listed as 110-220 times. In addition, the ED50 in the series with GFP strain P. berghei (po, read-out: PO ED50) was found to be 2.6 mg/kg; in the series on GFP strain P. berghei (sc, read-out: SC ED50) it was 0.06 mg/kg. Besides, the “times more efficacious than sodium artesunate administered PO” value in the series on GFP strain P. berghei (mice, PO) was “approximately 1.5 times”. The “overt toxicity / behavioral modification in the mice” value in the series on GFP strain P. berghei is on record as “Neither over toxicity nor behavioral modification was observed”.

What is called solubility is the dissolved amount per volume that the medium holds. On to `C[C@H]1[C@@H](CCc2cc(C(=O)O)c(C(=O)O)cc2CC[C@H]2O[C@@H]3O[C@@]4(C)CC[C@H]5[C@H](C)CC[C@@H]([C@H]2C)[C@@]35OO4)O[C@@H]2O[C@@]3(C)CC[C@H]4[C@H](C)CC[C@@H]1[C@@]24OO3` [dimer 6], for which, in series [4] (setting [8]), the IC50 amounted to 360 nM. Further, in series [6], the solubility is around 14 mg/mL (≈ 18.5 mM).

As for `C=C(CC[C@H]1O[C@@H]2O[C@@]3(C)CC[C@H]4[C@H](C)CC[C@@H]([C@H]1C)[C@@]24OO3)C(=C)CC[C@H]1O[C@@H]2O[C@@]3(C)CC[C@H]4[C@H](C)CC[C@@H]([C@H]1C)[C@@]24OO3` [dimer 4], in series [4] (setting [8]), the IC50 is 2.9 nM.

With `C[C@H]1[C@@H](CCc2cc3c(cc2CC[C@H]2O[C@@H]4O[C@@]5(C)CC[C@H]6[C@H](C)CC[C@@H]([C@H]2C)[C@@]46OO5)COP(=O)(Oc2ccccc2)OC3)O[C@@H]2O[C@@]3(C)CC[C@H]4[C@H](C)CC[C@@H]1[C@@]24OO3` (some centres unmarked) [dimer 9], the IC50 in series [4] amounted to 3.7 nM.

On to `C[C@@H]1CC[C@H]2[C@@H](C)C(=O)O[C@@H]3O[C@]4(C)CC[C@@H]1[C@]32OO4` [Artemisinin, artemisinin, reference compound], for which the IC50 in series [4] (setting [8]) came out at 6.6 ± 0.76 nM.

In the case of `COC(=O)c1cc(CC[C@H]2O[C@@H]3O[C@@]4(C)CC[C@H]5[C@H](C)CC[C@@H]([C@H]2C)[C@@]35OO4)c(CC[C@H]2O[C@@H]3O[C@@]4(C)CC[C@H]5[C@H](C)CC[C@@H]([C@H]2C)[C@@]35OO4)cc1C(=O)OC` [dimer 5], in series [3], the “toxicity to primary normal cervical cells” value is listed as “without being toxic”. For the same molecule, the IC50 in series [4] (setting [8]) stood at 1.6 nM. Further, in series [5], the “times more potent than trioxane monomer DHA” value is reported as 10-20 times and the IC50 turned out to be 500 nM. Further, the “preliminary growth inhibitory activity, selectivity in the panel” value in series [7] was “extremely selective and highly potent at inhibiting the growth of only non-small cell lung carcinoma HOP-92 cells, melanoma SK-MEL-5 cells, and breast cancer BT-549 cells”. Also, the ED50 with GFP strain P. berghei (sc, read-out: SC ED50) came out at 0.71 mg/kg. Further, the “overt toxicity / behavioral modification in the mice” value in the series on GFP strain P. berghei is “Neither over toxicity nor behavioral modification was observed”.

Values taken from US20090291923A1, “TRIOXANE DIMERS HAVING HIGH ANTICANCER AND LONG-LASTING ANTIMALARIAL ACTIVITIES” (priority 2005, published 2009).
